# Tested on: 922993-354-T-J3-PDC complex spheroid viability
# Experiment: Anticancer human tumor 922993-354-T-J3-PDC patient-derived endometrial carcinoma cell line growth inhibition [POLQ]
# Conditions: for IC50: curve of first compound; for viability, T/C: stronger effect = lower value
# Procedure, shortened: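 Complex spheroid viability model combining PDC tumour cells with endothelial (HUVEC) and MSC stromal cells. Novobiocin, ART-558 or RP6685 were tested singly and in combination with standard and investigational anticancer drugs. Each was titrated in half-log steps from near clinical Cmax, or from 10 microM where Cmax was unknown.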
# [1] = second compound 0.0316 µM, first compound 0.0316 µM
# [2] = second compound 0.0316 µM, first compound 0.1 µM
# [3] = second compound 0.0316 µM, first compound 0.316 µM
# [4] = second compound 0.0316 µM, first compound 1 µM
# [5] = second compound 0.0316 µM, first compound 3.16 µM
# [6] = second compound 0.0316 µM, first compound 10 µM
# [7] = second compound 0.1 µM, first compound 0.0316 µM
# [8] = second compound 0.1 µM, first compound 0.1 µM
# [9] = second compound 0.1 µM, first compound 0.316 µM
# [10] = second compound 0.1 µM, first compound 1 µM
# [11] = second compound 0.1 µM, first compound 3.16 µM
# [12] = second compound 0.1 µM, first compound 10 µM
# [13] = second compound 0.316 µM, first compound 0.0316 µM
# [14] = second compound 0.316 µM, first compound 0.1 µM
# [15] = second compound 0.316 µM, first compound 0.316 µM
# [16] = second compound 0.316 µM, first compound 1 µM
# [17] = second compound 0.316 µM, first compound 3.16 µM
# [18] = second compound 0.316 µM, first compound 10 µM
# [19] = second compound 1 µM, first compound 0.0316 µM
# [20] = second compound 1 µM, first compound 0.1 µM
# [21] = second compound 1 µM, first compound 0.316 µM
# [22] = second compound 1 µM, first compound 1 µM
# [23] = second compound 1 µM, first compound 3.16 µM
# [24] = second compound 1 µM, first compound 10 µM
# [25] = second compound 3.16 µM, first compound 0.0316 µM
# [26] = second compound 3.16 µM, first compound 0.1 µM
# [27] = second compound 3.16 µM, first compound 0.316 µM
# [28] = second compound 3.16 µM, first compound 1 µM
# [29] = second compound 3.16 µM, first compound 3.16 µM
# [30] = second compound 3.16 µM, first compound 10 µM
# [31] = second compound 10 µM, first compound 0.0316 µM
# [32] = second compound 10 µM, first compound 0.1 µM
# [33] = second compound 10 µM, first compound 0.316 µM
# [34] = second compound 10 µM, first compound 1 µM
# [35] = second compound 10 µM, first compound 3.16 µM
# [36] = second compound 10 µM, first compound 10 µM
# 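Further: spheroids exposed to the agents for one week.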
# 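Wherever viability, T/C is given: 100% = DMSO vehicle control wells.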
smiles,measurement,setting,value
CC1COCCN1c1cc(-c2ccnn2C)c2ccnc(-c3ccn[nH]3)c2n1 (centres undefined) + COC1C(OC(N)=O)C(O)C(Oc2ccc3c(O)c(NC(=O)c4ccc(O)c(CC=C(C)C)c4)c(=O)oc3c2C)OC1(C)C,IC50,second compound 0.0316 µM,121 nM
same,IC50,second compound 0.1 µM,185 nM
same,IC50,second compound 0.316 µM,172 nM
same,IC50,second compound 1 µM,152 nM
same,IC50,second compound 3.16 µM,143 nM
same,IC50,second compound 10 µM,117 nM
same,"viability, T/C",[1],83.5%
same,"viability, T/C",[2],54.2%
same,"viability, T/C",[3],27.8%
same,"viability, T/C",[4],11.2%
same,"viability, T/C",[5],10.4%
same,"viability, T/C",[6],11.8%
same,"viability, T/C",[7],94.4%
same,"viability, T/C",[8],69.9%
same,"viability, T/C",[9],33.7%
same,"viability, T/C",[10],9.37%
same,"viability, T/C",[11],8.43%
same,"viability, T/C",[12],10.4%
same,"viability, T/C",[13],95.1%
same,"viability, T/C",[14],68.4%
same,"viability, T/C",[15],29.5%
same,"viability, T/C",[16],12.7%
same,"viability, T/C",[17],9.09%
same,"viability, T/C",[18],11.2%
same,"viability, T/C",[19],78.6%
same,"viability, T/C",[20],55.4%
same,"viability, T/C",[21],39.7%
same,"viability, T/C",[22],10.2%
same,"viability, T/C",[23],8.85%
same,"viability, T/C",[24],10.6%
same,"viability, T/C",[25],89.9%
same,"viability, T/C",[26],60%
same,"viability, T/C",[27],27.9%
same,"viability, T/C",[28],9.41%
same,"viability, T/C",[29],7.96%
same,"viability, T/C",[30],11.8%
same,"viability, T/C",[31],82%
same,"viability, T/C",[32],53.3%
same,"viability, T/C",[33],26.8%
same,"viability, T/C",[34],8.03%
same,"viability, T/C",[35],9.82%
same,"viability, T/C",[36],10.7%
CC1COCCN1c1cc(C2(S(C)(=N)=O)CC2)nc(-c2ccnc3[nH]ccc23)n1 (centres undefined) + COC1C(OC(N)=O)C(O)C(Oc2ccc3c(O)c(NC(=O)c4ccc(O)c(CC=C(C)C)c4)c(=O)oc3c2C)OC1(C)C,IC50,second compound 0.0316 µM,9950 nM
same,IC50,second compound 0.1 µM,7810 nM
same,IC50,second compound 0.316 µM,> 10000 nM
same,IC50,second compound 1 µM,> 10000 nM
same,IC50,second compound 3.16 µM,8350 nM
same,IC50,second compound 10 µM,8170 nM
same,"viability, T/C",[1],94.7%
same,"viability, T/C",[2],94.6%
same,"viability, T/C",[3],108%
same,"viability, T/C",[4],105%
same,"viability, T/C",[5],80.4%
same,"viability, T/C",[6],49.8%
same,"viability, T/C",[7],105%
same,"viability, T/C",[8],92.2%
same,"viability, T/C",[9],95.6%
same,"viability, T/C",[10],93.2%
same,"viability, T/C",[11],80.2%
same,"viability, T/C",[12],41.5%
same,"viability, T/C",[13],81.1%
same,"viability, T/C",[14],105%
same,"viability, T/C",[15],106%
same,"viability, T/C",[16],101%
same,"viability, T/C",[17],87.2%
same,"viability, T/C",[18],52.5%
same,"viability, T/C",[19],102%
same,"viability, T/C",[20],101%
same,"viability, T/C",[21],92.5%
same,"viability, T/C",[22],88.6%
same,"viability, T/C",[23],72.6%
same,"viability, T/C",[24],52.8%
same,"viability, T/C",[25],91.8%
same,"viability, T/C",[26],103%
same,"viability, T/C",[27],103%
same,"viability, T/C",[28],85.7%
same,"viability, T/C",[29],77%
same,"viability, T/C",[30],44.9%
same,"viability, T/C",[31],89.1%
same,"viability, T/C",[32],84.7%
same,"viability, T/C",[33],96%
same,"viability, T/C",[34],84.2%
same,"viability, T/C",[35],64.7%
same,"viability, T/C",[36],46.9%
